The source of these data is patent US9422261B2, “Heterocyclic resorcinol derivatives, preparation of same and cosmetic uses thereof” (PIERRE FABRE DERMO-COSMETIQUE, priority 2011, dated 2016).

Data set [1] can be described thus: Antioxidant ability using chemiluminescence (Photochem, Analytik Jena). The following applies: for μg of sample for 1 μg of Trolox: trapping of superoxide anions, chemiluminescence. An excerpt:
This test is used to determine the antioxidant ability of the molecules. It is a method that generates free radicals by a photochemical signal. The intensity of the oxidation is 1000 times greater than that obtained under normal conditions.
Detection is by chemiluminescence. It enables the evaluation of water-soluble and lipid-soluble antioxidant molecules or extracts.
The results are expressed as equivalents of vitamin C or Trolox (6-hydroxy-2,5,7,8-tetramethylchroman-2-carboxylic acid), respectively. The sensitivity is on the order of the nanomole.
The antioxidant activity studied in this test represents the ability to specifically trap superoxide anions by chemiluminescence.
The quantified results are expressed in Trolox equivalents (standard), or “μg of product for 1 μg of Trolox.” This means that a quantity x of sample is needed to obtain activity equivalent to the activity detected for 1 μg of the standard. This represents antioxidant ability relative to a reference, which frees us from concern about the concentration tested.
The superoxide radical (O2°^−) is generated by a photochemical reaction: L+hv(UV)+O2→L*O2→L°^++O2°^− L*: luminol in the excited state L°^+: luminol radical
Some of the superoxide anions are quenched by the antioxidants. The remaining free radicals are quantified by chemiluminescence. L°^++O2°^−→N2+AP*^2−→AP^2−+hv (luminescence) AP*^2−: aminophthalate in the excited state

Data set [2] can be described thus: Solubility in aqueous phase. Format: physicochemical. The following applies: aqueous phase / aqueous acidic solution.
The target in data set [3] is tyrosinase monophenol monooxygenase (MPMO) (Agaricus bisporus, UniProt C7FF04). Briefly: biochemical. As to the method:
(§1) The substrate, L-tyrosine, is transformed by the monophenol monooxygenase functional group into L-DOPA, itself transformed by the tyrosinase's polyphenol oxidase functional group into dopaquinone. The latter will auto-oxidize into dopachrome, which is measured by spectrophotometry at 490 nm.
(§2) More precisely, it is global tyrosinase activity (MPMOg) that is measured since ultimately it is dopachrome that is assayed. Thus, the products tested in terms of MPMOg (measurement of activity on PPO and MPMO) can accumulate the inhibition of the 2 functional groups; • inhibiting only the MPMO functional group in the strict sense (transformation of tyrosine into DOPA) in addition to the PPO test, • inhibiting only PPO.

The next data set has as its system B16-F10 cells. Briefly: Assay of melanin in B16-F10 cells stimulated with α-MSH. Format: cell-based, murine. The conditions noted are these: 72 hours, 0.1 μM α-MSH; for IC50: Mus musculus, B16-F10, read-out: Melanin assay, in strains B16F10, IC50; for Melanin assay, in strains B16F10 (%): negative value indicates inhibition. The procedure: This test measures melanin synthesis using a colorimetric assay on a murine melanoma cell line: B16-F10. […] B16-F10 cells are seeded in 96-well plates in DMEM medium supplemented with fetal calf serum (FCS) and then incubated for 24 hours at 37° C., 5% CO2. […] Each concentration of active agent is tested at least in triplicate. […] The total proteins are assayed in the lysate and the results are expressed in mg melanin/mg proteins: The percentage of activity is calculated as follows: A negative value indicates inhibition, whereas a positive value indicates induction of melanin synthesis. Biological Material: • B16-F10 cell line between […] (murine melanocytes) (ATCC, CRL-6475)

Data set [4] has as its target tyrosinase polyphenol oxidase (PPO) (Agaricus bisporus, UniProt C7FF04). Briefly: Tyrosinase inhibition test, polyphenol oxidase (PPO) function, reference molecules. Type of data set: biochemical, mushroom. The conditions noted are these: at 25 μM. As to the method:
as §1, §2

tyrosinase monophenol monooxygenase (MPMO), sequence (C7FF04 1-392 limits assumed): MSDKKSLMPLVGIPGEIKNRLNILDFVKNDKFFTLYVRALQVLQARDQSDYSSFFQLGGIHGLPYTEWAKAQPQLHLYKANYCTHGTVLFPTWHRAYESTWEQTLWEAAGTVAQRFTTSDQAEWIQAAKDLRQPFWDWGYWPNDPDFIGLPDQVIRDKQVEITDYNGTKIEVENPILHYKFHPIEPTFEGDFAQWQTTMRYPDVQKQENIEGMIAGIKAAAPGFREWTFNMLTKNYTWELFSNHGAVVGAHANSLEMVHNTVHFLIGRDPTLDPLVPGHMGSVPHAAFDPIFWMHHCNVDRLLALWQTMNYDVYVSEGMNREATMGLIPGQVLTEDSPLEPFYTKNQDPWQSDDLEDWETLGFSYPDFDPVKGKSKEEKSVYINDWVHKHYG
tyrosinase polyphenol oxidase (PPO), sequence (C7FF04 1-392 limits assumed): as above

Take `O=C(O)CCCC[C@@H]1CCSS1` (racemic) [Lipoic acid, reference compound]: the “μg of sample for 1 μg of Trolox (scale used to interpret the results)” value in data set [1] (reference products of the interpretation scale) is given as “NEGATIVE”.

`CC(c1ccccc1)c1ccc(O)cc1O` (stereo not drawn) [4-(1-phenylethyl)benzene-1,3-diol, reference compound]: in data set [2], the “Solubility in aqueous phase” value was “insoluble in aqueous phase”. `OC[C@H]1O[C@@H](Oc2ccc(O)cc2)[C@H](O)[C@@H](O)[C@@H]1O` [Arbutin, reference compound]: in data set [3] (read-out: % inhibition (MPMO)), the inhibition (commonly the percentage by which the read-out fell short of the control) at 88 µM came to 57%. In addition, the 50% inhibitory concentration (IC50) (commonly the concentration needed to halve the response being measured) in the data set on B16-F10 cells came out at 158 µM. Turning to `CC(c1cccs1)c1ccc(O)cc1O` (stereo not drawn) [Compound 1, 4-(1-(thiophene-2-yl)ethyl)benzene-1,3-diol], the “Melanin assay, in strains B16F10 (%)” value in the data set on B16-F10 cells (at 20 μM) is given as −50% at 20 μM. In data set [1], the “μg of sample for 1 μg of Trolox” value is 13.7 μg of sample for 1 μg of Trolox. Regarding `CC(c1ccccn1)c1ccc(O)cc1O` (stereo not drawn) [Compound 2, 4-(1-(pyridin-2-yl)ethyl)benzene-1,3-diol], in the data set on B16-F10 cells (at 20 μM), the “Melanin assay, in strains B16F10 (%)” value is on record as −26% at 20 μM. In addition, the “μg of sample for 1 μg of Trolox” value in data set [1] is 10.4 μg of sample for 1 μg of Trolox. Consider `CC(c1cccnc1)c1ccc(O)cc1O` (stereo not drawn) [Compound 3, 4-(1-(pyridin-3-yl)ethyl)benzene-1,3-diol], for which the “Melanin assay, in strains B16F10 (%)” value in the data set on B16-F10 cells (at 20 μM) is −52% at 20 μM. Also, the “μg of sample for 1 μg of Trolox” value in data set [1] is 8.7 μg of sample for 1 μg of Trolox. The “Solubility in aqueous phase” value in data set [2] is reported as “dissolve the active ingredient in aqueous acidic solution”.

Take `CC(c1ccsc1)c1ccc(O)cc1O` (stereo not drawn) [Compound 4, 4-(1-(thiophene-3-yl)ethyl)benzene-1,3-diol]: the “Melanin assay, in strains B16F10 (%)” value with B16-F10 cells (at 20 μM) is −52% at 20 μM. In addition, the “μg of sample for 1 μg of Trolox” value in data set [1] is listed as 15.4 μg of sample for 1 μg of Trolox. On to `CC(c1nccs1)c1ccc(O)cc1O` (stereo not drawn) [Compound 5, 4-(1-(thiazol-2-yl)ethyl)benzene-1,3-diol], for which the “Melanin assay, in strains B16F10 (%)” value in the data set on B16-F10 cells (at 20 μM) was −33% at 20 μM. In addition, the “μg of sample for 1 μg of Trolox” value in data set [1] is 11.7 μg of sample for 1 μg of Trolox. As to `CC(C)CC(c1cccs1)c1ccc(O)cc1O` (stereo not drawn) [Compound 28, 4-(3-methyl-1-(thiophene-2-yl)butyl)benzene-1,3-diol], the melting point (in general, the temperature of the solid-liquid transition) amounted to 89.9 °C. For the same molecule, the “Melanin assay, in strains B16F10 (%)” value in the data set with B16-F10 cells (at 10 μM) is given as −52% at 10 μM.

With `CCCC(c1cccs1)c1ccc(O)cc1O` (stereo not drawn) [Compound 31, 4-(1-(thiophene-2-yl)butyl)benzene-1,3-diol], in the data set with B16-F10 cells (at 10 μM), the “Melanin assay, in strains B16F10 (%)” value is −50% at 10 μM.

As for `O=c1cc(CO)occ1O` [Kojic acid, reference compound], the IC50 with B16-F10 cells was 2400 µM.

Consider `N[C@@H](CCC(=O)N[C@@H](CS)C(=O)NCC(=O)O)C(=O)O` [Reduced glutathione], for which the “% inhibition (PPO)” value in data set [4] was 55%. In addition, the IC50 in data set [3] (read-out: IC50 (MPMO), reference molecules for the test, MPMO) was in the range of 1 to 2 µM.
